These results are taken from US20030007938A1, “Methods for treating fingernails and toenails” (priority 2001, published 2003).

In this assay the test system is index fingernail and cuticle. Description: Fingernail growth of the index finger in human volunteers, daily topical treatment for four weeks. It is filed as in vivo. The method, then: This Example describes the use of a cream prepared with the complexes of peptone with copper (II) to improve nail growth in humans. The copper soy peptone complex (0.3% copper ion and 4% dry weight of peptone) was mixed into an application cream containing 55% (by weight) aloe vera gel, 12% squalane, 12% glycerol stearate, 5% PEG-100, 4% cetyl alcohol and 0.3% retinol. The placebo-treated control nails were treated with a similar cream that contained no copper-peptide complex. For testing experiments, the fingernail growth rates of the index finger were used as a measurement. In the first set of experiments, the copper-peptide complex was applied to the index fingernail and cuticle on the right hand while the left hand nail was untreated and used as a control. In the second set of experiments with different human volunteers, the copper-peptide cream was applied to the index fingernail and cuticle on the left hand while the right hand nail was treated with the placebo cream and used as a control. Nails were treated daily for four weeks. Nail length was measured from the end of the nail bed to the tip of the nail at its center by pushing a small plastic ruler under the nail and firmly against the nail bed. […] The effect of nail growth stimulation was approximately similar if either the right hand treated group or the left hand treated group was used. For testing experiments, the fingernail growth rates of the index finger were used as a measurement. In the experiments, the copper-peptide complex was applied to the index fingernail and cuticle on the right hand while the left hand nail was treated with the placebo cream and used as a control. Nails were treated daily for four weeks. Nail length was measured from the end of the nail bed to the tip of the nail at its center by pushing a small plastic ruler under the nail and firmly against the nail bed. […]

Several values for one entry are separate records, joined by “and”; a condition that tells them apart may be missing. Identical values can stand only once.

For the substance GHK-Copper (II) [GHK-Copper complex], the “Finger Nail Growth, Right Hand Treated” value (GHK-Copper (II) cream for four weeks, one value per person, left hand placebo control) was 3.1 millimeters in four weeks and 3.5 millimeters in four weeks and 3.7 millimeters in four weeks and 3.4 millimeters in four weeks and 2.9 millimeters in four weeks. Where the note is “four weeks, readily apparent in all cases”, the “Visual inspection of treated nails versus control hand” value was “appeared to be longer”. For the same substance, the “Nail growth of treated nails compared with control nails” value (summary in words of the table, four weeks) is on record as “better nail growth”.
